One series concerns the target T1, MD-2 (Homo sapiens, UniProt Q9Y6Y9).
T1 construct: purchased Novus Biologicals
T1 sequence (Q9Y6Y9 19-160): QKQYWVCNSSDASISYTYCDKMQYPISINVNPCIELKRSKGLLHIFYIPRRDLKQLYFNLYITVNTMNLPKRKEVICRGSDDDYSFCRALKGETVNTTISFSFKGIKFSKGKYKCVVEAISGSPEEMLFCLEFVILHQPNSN
Description: ELISA-based displacement assay with biotinylated LPS. It counts as binding. The protocol: To experimentally determine if SoLs A and B bind to MD-2 and to what extent the SoLs compete with LPS for binding to MD-2, an ELISA-based displacement assay was conducted. Taking advantage of biotinylated LPS, which retains the activity of unconjugated LPS, absorbance generated by an HRP-linked streptavidin probe was measured to determine the relative amount of MD-2 that was bound with biotin-LPS as opposed to MD-2 bound with SoL A or B. 0.1, 1.0, and 10 µM concentrations of SOL A or B and 1 ng/ml biotin-LPS were administered to MD-2 in three sequences: 1) Sol first followed by LPS 1 hour later, 2) LPS first followed by Sol 1 hour later, and 3) both SoL A or B and LPS at the same time.
ELISA displacement assay. Solid-phase sandwich ELISA kits were purchased from Invitrogen. The ELISA experiments were performed according to the kit instructions, using 50 nM hMD-2 (Novus Biologicals), 1 ng/mL LPS-EB Biotin (Invivogen), and 0.1, 1.0, and 10 µM purified SoL A. SOL A was added to the assay 1 hour before, 1 hour after, or simultaneously with LPS-EB Biotin. Absorbance was measured at 450 nm using a BioTek microplate reader.
(In general: In an ELISA, binding on a coated surface is turned into a signal by an enzyme label.)

Another series concerns TLR1/2. Kind of series: Pam3CSK4-induced cytokine expression in primary mouse macrophages (RT-qPCR). The format is cell-based. The protocol:
(§1) Primary mouse macrophages were treated with SoL A (as a representative of SoLs) either alone or together with LPS (an agonist of TLR4) or Pam3CSK4 (an agonist of TLR1/2) and the expression of three inflammatory cytokines was measured (IL-6, TNFα, and IL-1β).
On FIG. 16, bars represent mean±standard error. For each treatment, n=3. Significance was determined using Student's t test: * p<0.05, **** p<[…] 0.0001.
Preparation and treatment of macrophages. Primary mouse macrophages were prepared by first introducing 3 mL of 3% thioglycolate to mice via intraperitoneal injection. After 3 days, 10 mL of chilled PBS was introduced intraperitoneally to flush out macrophages. The cell suspension was then separated by centrifugation at 300×g for 5 minutes. Cells were seeded in culture dishes containing DMEM with 10% FBS for 1 hour before being washed with serum-free DMEM two times to remove unattached cells. The cells were incubated in serum-free DMEM for 16 hours before treatment. […]
mRNA extraction and RT-qPCR in macrophage-based assays. […] Relative gene expression levels were calculated using the ΔΔCT method and expression levels of 18S were used to normalize the results.
Background: In qPCR the cycle at which signal appears reflects the starting amount.

Series [1] deals with THP-1 monocytes. Description: M2 polarization of THP-1 derived macrophages (RT-qPCR of markers). It counts as cell-based. As to conditions: 10 µM SoL A with IL-4 and IL-1β, 24 hours, n=3. How it is done:
(§2) THP-1 monocytes were treated with IFN-γ and LPS to induce M1 polarization or IL-4 and IL-1β to induce M2 polarization. Successful induction of M1 and M2 polarization was confirmed by morphology changes and subsequent RT-qPCR quantification of cytokine profiles.
(§3) For all treatments, n=3 and significance was determined using one-way ANOVA: 0.001<p<0.01, *** 0.0001<p<0.001, and **** p<0.0001.
(§4) THP-1 monocytes were maintained in RPMI16 with 10% heat inactivated FBS, 1% Penicillin-Streptomycin-Ampotericin B, and 50 μM 2-mercaptoethanol prior to differentiation. The cells were differentiated into macrophages with 150 nM PMA for 48 hours. M1 polarization was induced by adding 20 ng/ml IFN-γ and […] LPS for 24 hours. M2 polarization was induced by adding 20 ng/ml IL-4 and 20 ng/ml IL-1β for 24 hours. In all tests, 10 µM Sol A was added at the same time as M1 and M2 differentiation agents. After 24 hours of treatment, total RNA was collected, and RT-qPCR was performed as described above.

Series [2] is described as follows: in vivo inflammation after intraperitoneal injection of SoL A. The following applies: 1 mg/kg i.p. Also on record: species or system mouse. How it is done:
To test whether SoL A can induce inflammation in vivo, mice were treated by intraperitoneal (i.p.) injection of 1 mg/kg of SOL A. At 2 hrs post-injection, FACS analysis of immune cells in the peritoneal exudate was performed.

The next series concerns TLR4. Kind of series: LPS-induced cytokine expression in primary mouse macrophages (RT-qPCR). The following applies: SoL A together with LPS, p≤0.0001. The format is cell-based. How it is done:
as §1
Preparation and treatment of macrophages. Primary mouse macrophages were prepared by first introducing 3 mL of 3% thioglycolate to mice via intraperitoneal injection. After 3 days, 10 mL of chilled PBS was introduced intraperitoneally to flush out macrophages. The cell suspension was then separated by centrifugation at 300×g for 5 minutes. […]
mRNA extraction and RT-qPCR in macrophage-based assays. […] The quality and quantity of RNA was then determined using a nanodrop and 1000 ng of mRNA from each sample was used for cDNA synthesis using a First-strand cDNA Synthesis System (Marligen Bioscience), qPCRs reactions were prepared in a 20 uL final volume containing Fast Start Universal SYBR Green Master (Rox) (Roche Applied Science), cDNA template, deionized water, and primers and probes for IL-1β, TNFα, IL-6, and the 18S rRNA which was used as a housekeeping gene Cycling conditions were 95° C. for 10 min followed by 40 cycles of 95° C. for 10 seconds, 60° C. for 15 seconds, and 68° C. for 20 seconds, then a melting curve analysis from 60° C. to 95° C. every 0.2° C. was obtained. […]

Another series has as its system peritoneal macrophages. Description: inflammatory cytokine expression in macrophages treated with purified SoL A (qRT-PCR). The format is cell-based. The following applies: 10UM (FIG. 32 legend).
The next series concerns Macrophages. Description: Western blot of TLR4 downstream signaling in LPS-treated macrophages. The format is cell-based. As to conditions: 100 ng/ml LPS, 30 minutes. The protocol: Macrophages were treated with 100 ng/ml LPS in the presence of increasing concentrations of Sol A or B (from 0 to 20 μM) for 30 minutes. Following treatment, all cellular protein was extracted using MPER lysis buffer (Thermo Scientific). Protein samples were loaded onto SDS-PAGE gels for separation, then transferred to nitrocellulose membranes (Amersham Biosciences). Primary antibodies and HRP-conjugated secondary antibodies (Cell Signaling Technology) were used to detect target proteins. Signal was detected using an ECL kit (Thermo Scientific). […] The housekeeping gene β-Actin was used as a loading control.

Series [3] has as its system THP-1 monocytes. Description: M1 polarization of THP-1 derived macrophages (RT-qPCR of markers). The following applies: 10 µM SoL A with IFN-γ and LPS, 24 hours, n=3. It counts as cell-based. How it is done:
as §2, §3, §4

In series [4] the test system is Primary mouse macrophages. Description: inflammatory cytokine expression in primary mouse macrophages, agent alone (RT-qPCR). It counts as cell-based. The following applies: agent by itself, n=3. How it is done:
as §1
Preparation and treatment of macrophages. Primary mouse macrophages were prepared by first introducing 3 mL of 3% thioglycolate to mice via intraperitoneal injection. After 3 days, 10 mL of chilled PBS was introduced intraperitoneally to flush out macrophages. The cell suspension was then separated by centrifugation at 300×g for 5 minutes. Cells were seeded in culture dishes containing DMEM with 10% FBS for 1 hour before being washed with serum-free DMEM two times to remove unattached cells. The cells were incubated in serum-free DMEM for 16 hours before treatment. To treat the macrophages, cells were incubated for 6 to 24 hours in DMEM without FBS with addition of LPS (Sigma-Aldrich), Pam3CSK4 (Invivogen), or SoL A. Cells were finally washed twice with Dulbecco's phosphate-buffered saline before being lysed for total RNA or protein extraction.
mRNA extraction and RT-qPCR in macrophage-based assays. […] The quality and quantity of RNA was then determined using a nanodrop and 1000 ng of mRNA from each sample was used for cDNA synthesis using a First-strand cDNA Synthesis System (Marligen Bioscience), qPCRs reactions were prepared in a 20 uL final volume containing Fast Start Universal SYBR Green Master (Rox) (Roche Applied Science), cDNA template, deionized water, and primers and probes for IL-1β, TNFα, IL-6, and the 18S rRNA which was used as a housekeeping gene Cycling conditions were 95° C. for 10 min followed by 40 cycles of 95° C. for 10 seconds, 60° C. for 15 seconds, and 68° C. for 20 seconds, then a melting curve analysis from 60° C. to 95° C. every 0.2° C. was obtained. […] Relative gene expression levels were calculated using the ΔΔCT method and expression levels of 18S were used to normalize the results.

Series [5] can be described thus: piroxicam-accelerated Il10-deficient mouse IBD model. It counts as in vivo. The protocol: Experimental validation of the predictions of Example 1 were carried out using a mouse model of IBD. […] Stimulation of mucosal Toll-like receptors (TLRs) stemming from this mucosal barrier breakdown was another factor in the selection of this model, as it has been previously shown that SoL A suppresses LPS-induced inflammation and LPS is well-known to activate TLR signaling. […]
Fecal material was collected from IBD 1/10−/−+piroxicam (n=7, female) and pre-IBD control//10−/−mice (n=4, female), extracted metabolites, and the abundance of SoLs was measured by targeted metabolomics using high performance liquid chromatography (HPLC)-high resolution mass spectrometry (HRMS). […] Metabolites with m/z corresponding to major SoLs were detected, specifically SoLs A and B, in all samples tested and their identities were unambiguously determined by HPLC-MS/MS. […]
Peak areas were calculated using TICs obtained after MS/MS fragmentation and used to measure the abundance of SoLs A and B. Significance was determined using Student's t-test. […] Significance was determined using Mann-Whitney U test. […]
Piroxicam-accelerated 1110−/−mouse IBD model and analysis. […] Mice were euthanized at 18 days to collect tissues for assessment and intestinal contents for quantification of SoLs. […] Inflammation scores of colon sections were blindly assessed using an Echo Revolve light microscope and accompanying software. […]

Where [6] appears, read: SoL added first, LPS 1 hour later, vs LPS first or together, all concentrations 0.1, 1.0, 10 µM, 1 ng/ml biotin-LPS.
[7] abbreviates: moving from low to high concentrations of SoL (0.1, 1.0, 10 µM).

From US20250099403A1, “IDENTIFICATION OF ACTIVITIES OF GUT MICROBE METABOLITES” (UNIVERSITY OF SOUTH CAROLINA, priority 2023, published 2025) come the findings set out here.

Turning to `CC(C)CCCCCCCCCCC[C@@H](O)CC(=O)N[C@@H](CS(=O)(=O)O)[C@H](O)CCCCCCCCCCCC(C)C` [SoL A, sulfobacin A], the figures for the “percent absorbance (MD-2 bound with biotin-LPS)” value at MD-2 (setting [6]) and on MD-2 (setting [7]) were “marked decrease” and “decreased dramatically”, respectively. Moreover, the “Pam3CSK4-induced IL-6 and TNFα expression” value with TLR1/2 (SoL A together with Pam3CSK4) was “inhibited Pam3CSK4-induced IL-6 and TNFα to a smaller extent”. For the same compound, the “IL-1β expression induced by Pam3CSK4” value in the series on TLR1/2 (SoL A together with Pam3CSK4, p≤0.05) is listed as “increasing”. Besides, the “effect on M2 polarization (marker expression)” value in the series on THP-1 monocytes [1] is listed as “mostly non-significant effect”. The “monocytes and neutrophils in the peritoneal exudate” value in [2] (2 hrs post-injection, FACS) was “more monocytes (Mono) and neutrophils (Neut) were recruited”. Also, the “serum IL-6 levels” value in series [2] (ELISA) is “significantly and consistently increased”. The “expression of all three cytokines (IL-6, TNFα, IL-1β) induced by LPS” value in the series with TLR4 is “significantly suppress”. Also, in the series with peritoneal macrophages, the “expression levels of pro-inflammatory cytokines IL-1a, IL-1B, IL-6, and TNFα” value was “significantly increased”. Also, in the series on Macrophages (SoL 0 to 20 μM), the “LPS-induced IκBα degradation” value is listed as “concentration-dependently suppressed”. Moreover, the “LPS-induced phosphorylation of p38 and ERK1/2” value in the series with Macrophages (SoL 0 to 20 μM) is “reduced LPS-induced phosphorylation of p38 and ERK1/2 in a concentration-dependent manner”; in the series with Macrophages (SoL at 20 µM) it was “almost completely blocked”. The “production of M1-polarized macrophage markers IL-6, CXCL10, IL-12β, and TNFα” value in the series with THP-1 monocytes [3] is given as “significantly reduced”. The “expression of inflammatory cytokines (IL-6, TNFα, IL-1β) compared to control” value (“expression … compared to control” below) in [4] was “mild to moderate effect”.
On to `CC(C)CCCCCCCCCCCC(=O)N[C@@H](CS(=O)(=O)O)[C@H](O)CCCCCCCCCCCC(C)C` [SoL B, sulfobacin B], for which the “percent absorbance (MD-2 bound with biotin-LPS)” value on MD-2 (setting [6]) is “marked decrease”; on MD-2 (setting [7]), “decreased dramatically”. Besides, the “LPS-induced IκBα degradation” value in the series on Macrophages (SoL 0 to 20 μM) is reported as “concentration-dependently suppressed”. Also, the “LPS-induced phosphorylation of p38 and ERK1/2” value in the series with Macrophages (SoL 0 to 20 μM) is “reduced LPS-induced phosphorylation of p38 and ERK1/2 in a concentration-dependent manner”; in the series on Macrophages (SoL at 20 µM) it was “almost completely blocked”.
Regarding `CN1C(C(=O)Nc2ccccn2)=C(O)c2ccccc2S1(=O)=O` [piroxicam], in [5] (1/10−/− mice, diet with 100 ppm piroxicam, 18 days), the “histological analysis of mouse distal colon” value is “induced intestinal inflammation”. In addition, the “colon expression of inflammatory markers TNFα, NOS2, IL-6, and IL-1β” value in series [5] (1/10−/−+piroxicam mice vs control, Mann-Whitney U test) is “significantly increased”.
In the case of Pam3CSK4, the “expression … compared to control” value in [4] is “significant induction”.
On to lipopolysaccharide [LPS], for which, in [4], the “expression … compared to control” value is “significant induction”.
